Source: US20230293447A1, “CLEAVABLE LIPIDIC COMPOUNDS, COMPOSITIONS CONTAINING THEREOF, AND USES THEREOF” (priority 2020, published 2023)

Legend:
hEPO = hEPO expression in mouse serum after intramuscular injection of LNPs containing hEPO mRNA (ELISA); type: in vivo, Balb/c ByJ mice; conditions: 1 μg-dose of hEPO mRNA IM in quadriceps, serum 6 hours post-injection; LNPs lipid/DSPC/Chol/DMG-PEG2000 50:10:3.5:1.5, N/P 12
Procedure: LNPs comprising lipidic compound of formula (III) (or DOG-Cleave) or one of the compounds (VI), (XVII), (XIX), (XXI), (XXII), (XXIV), (XXVII) and (XXVIII), DSPC, Chol and DMG-PEG2000 at a molar ratio of 50:10:3.5:1.5, and hEPO mRNA at a N/P charge ratio=12 (unless otherwise specified in the table), were prepared as described in Example 30 by using the NanoassemblR. An Aqueous/Ethanolic phase volume ratio of 3/1 and at total flow rate of 4 mL/min was used. LNPs were prepared at a concentration of 60 μg of hEPO mRNA/mL in PBS 1×.
Four 8-week-old mice per group were injected on DO via intramuscular route in the quadriceps with 1 μg-dose of hEPO mRNA formulated in LNPs Lip. (IV)/DSPC under a final volume of 50 μL. As negative control, 4 mice received the same volume of PBS (for accelerated stability study and lipid screening) or Citrate Buffer (lipid screening)
Blood samples were collected 6 hours post-injection to measure the expression of hEPO in serum using a specific ELISA assay.
Blood samples were collected 6 hours post-injection by carotid section under deep anesthesia with Imalgene/Rompun (1.6 mg of Ketamine/0.32 mg of Xylazine) in serum-separation tubes (BD Vacutainer #BD367957). Sera were aliquoted and stored at −20° C. until hEPO determination.
hEPO expression in mouse sera was assessed using human Erythropoietin Quantikine IVD ELISA kit (R&D Systems #DEP00). The ELISA was performed following supplier's instructions. Briefly, sera were added in pre-coated plates and incubated for one hour at room temperature under orbital shaking. After sera removal, Erythropoietin conjugate was added for one hour at room temperature under orbital shaking. Plates were washed and Substrate solution was added for 20-25 minutes at room temperature before stopping the reaction with Stop solution. Absorbance at 450 nm with 650 nm signal subtraction was determined in a microplate reader. Data were analyzed using SoftmaxPro software and expressed in log 10 of the concentration of hEPO measured in mouse sera in pg/mL.

[1] = UHPLC-CAD-MS analysis of cleavage of DOG-Cleave during LNP formulation process; type: physicochemical; conditions: from extracted ion chromatograms, same response factor assumed

| Compound | EPO secretion IM (hEPO) | also measured |
| --- | --- | --- |
| CCCCCCCC/C=C\CCCCCCCCOCC(COCCOCCOCCOCCOC(=O)CNCCOC(=O)CNCCOC)OCCCCCCCC/C=C\CCCCCCCC.O=C(O)C(F)(F)F.O=C(O)C(F)(F)F (centres unmarked) [Compound (III), 2-[[2-[2-[2-[2-[2-[2,3-bis[(Z)-octadec-9-enoxy]propoxy]ethoxy]ethoxy]ethoxy]ethoxy]-2-oxo-ethyl]amino]ethyl 2-(2-methoxyethylamino)acetate;2,2,2-trifluoroacetic Acid] | 1.5 Log10 pg/ml | Relative amount in DOG-Cleave EtOH solution [1]: 75%; Relative amount in Final LNP [1]: 25%; Relative amount in LNP after 1st dialysis [1]: 59% |
| CCCCCCCC/C=C\CCCCCCCCOCC(COCCOCCOCCOCCOC(=O)CNCCOC(=O)[C@@H](N)COC)OCCCCCCCC/C=C\CCCCCCCC.Cl (stereo partly drawn) [Compound (VI), 2-[[2-[2-[2-[2-[2-[2,3-bis[(Z)-octadec-9-enoxy]propoxy]ethoxy]ethoxy]ethoxy]ethoxy]-2-oxoethyl]amino]ethyl (2S)-2-amino-3-methoxy-propanoate; Hydrochloride] | 2.1 Log10 pg/ml |  |
| CCCCCCCCC=CCCCCCCCCOCC(OCCCCCCCCC=CCCCCCCCC)C(=O)N(CCCCCCCC)CCOCCOCCOCCOCCOC(=O)CNCCOC(=O)CNCCOC.O=C(O)C(F)(F)F (centres unmarked) [Compound (XIX), 2-[[2-[2-[2-[2-[2-[2-[2,3-bis[(Z)-octadec-9-enoxy]propanoyl-octylamino]ethoxy]ethoxy]ethoxy]ethoxy]ethoxy]-2-oxo-ethyl]amino]ethyl 2-(2-methoxyethylamino)acetate;2,2,2-trifluoroacetic Acid] | 2.4 Log10 pg/ml |  |
| CCCCCCC(CCCC)C(=O)OCCCCCCOCC(COCCOCCOCCOCCOC(=O)CNCCOC(=O)CNCCOC)OCCCCCCOC(=O)C(CCCC)CCCCCC (centres unmarked) [Compound (XXII), 6-[2-[6-(2-butyloctanoyloxy)hexoxy]-3-[2-[2-[2-[2-[2-[2-[2-(2-methoxyethylamino)acetyl]oxyethylamino]acetyl]oxyethoxy]ethoxy]ethoxy]ethoxy]propoxy]hexyl 2-butyloctanoate;2,2,2-trifluoroacetic Acid] | 2.5 Log10 pg/ml |  |
| CCCCCCCCC=CCCCCCCCCOCC(OCCCCCCCCC=CCCCCCCCC)C(CCCCCCCCCCCC)OC(=O)NCCOCCOCCOCCOC(=O)CNCCOC(=O)CNCCOC.O=C(O)C(F)(F)F (centres unmarked) [Compound (XXIV), 2-[[2-[2-[2-[2-[2-[1-[1,2-bis[(Z)-octadec-9-enoxy]ethyl]tridecoxycarbonylamino]ethoxy]ethoxy]ethoxy]ethoxy]-2-oxo-ethyl]amino]ethyl 2-(2-methoxyethylamino)acetate;2,2,2-trifluoroacetic Acid] | 1.9 Log10 pg/ml |  |
| CCCCCCCCCOC(=O)CCCCCCCN(CCCCCCCC(=O)OC(CCCCCCCC)CCCCCCCC)C(=O)CCOCCOCCOCCOC(=O)CNCCOC(=O)CNCCOC [Compound (XXVII), nonyl 8-[3-[2-[2-[2-[2-[2-[2-(2-methoxyethylamino)acetyl]oxyethylamino]acetyl]oxyethoxy]ethoxy]ethoxy]propanoyl-[8-(1-octylnonoxy)-8-oxo-octyl]amino]octanoate;2,2,2-trifluoroacetic Acid] | 1.9 Log10 pg/ml |  |
| CCCCCCCCC(CCCCCC)C(=O)OCCCCCCOCC(OCCCCCCOC(=O)C(CCCCCC)CCCCCCCC)C(=O)N(CCCCCCCC)CCOCCOCCOCCOCCOC(=O)CNCCOC(=O)CNCCOC (centres unmarked) [Compound (XXVIII), 6-[2-[6-(2-hexyldecanoyloxy)hexoxy]-3-[2-[2-[2-[2-[2-[2-[2-[2-(2-methoxyethylamino)acetyl]oxyethylamino]acetyl]oxyethoxy]ethoxy]ethoxy]ethoxy]ethyl-octyl-amino]-3-oxopropoxy]hexyl 2-hexyldecanoate;2,2,2-trifluoroacetic acid] | 2.3 Log10 pg/ml |  |
| [(Z)-non-2-enyl] 8-[3-[2-[2-[2-[2-[2-[2-[2-(2-methoxyethylamino)acetyl]oxyethylamino]acetyl]oxyethoxy]ethoxy]ethoxy]ethoxy]-2-[8-[(Z)-non-2-enoxy]-8-oxo-octoxy]propoxy]octanoate;2,2,2-trifluoroacetic Acid [Compound (XVII)] | 2.4 Log10 pg/ml |  |
